Measured values taken from ChEMBL document CHEMBL1949582, “Suppression of nitric oxide production on LPS/IFN-γ-stimulated RAW264.7 macrophages by a novel catechin, pilosanol N, from Agrimonia pilosa Ledeb” (Bioorg Med Chem Lett, 2012).
Active and inactive are the calls of the source. The calls are words filed in the database; no cut-off is given here.

Key:
RAW264.7 [1] = assay: Antiinflammatory activity in mouse RAW264.7 cells assessed as inhibition of LPS/IFN-gamma-induced NO production at 25 to 100 uM after 20 hrs by Griess method; format: functional, cell-based
RAW264.7 [2] = assay: Antiinflammatory activity in mouse RAW264.7 cells assessed as inhibition of LPS/IFN-gamma-induced NO production after 20 hrs by Griess method; format: functional, cell-based
RAW264.7 [3] = assay: Cytotoxicity against mouse RAW264.7 cells assessed as cell viability at 25 to 100 uM by MTT assay; format: cell-based; conditions: raw264.7, 100 µM
RAW264.7 [4] = assay: Protection against LPS/IFN-gamma-induced cell damage in mouse RAW264.7 cells by MTT assay; format: functional, cell-based
RAW264.7 [5] = assay: Antiinflammatory activity in mouse RAW264.7 cells assessed as inhibition of LPS/IFN-gamma-induced iNOS protein production at 100 uM by RT-PCR analysis; format: functional, cell-based
[6] = Antioxidant activity in PBS buffer assessed as nitric oxide scavenging activity by measuring inhibition of nitrite production from NOR3 after 60 mins; format: functional
RAW264.7 [7] = assay: Antiinflammatory activity in mouse RAW264.7 cells assessed as inhibition of LPS/IFN-gamma-induced iNOS gene expression at 25 uM by RT-PCR analysis; format: functional

| Structure (SMILES) | inhibition (RAW264.7 [1]) | inhibition (RAW264.7 [2]) | Activity (RAW264.7 [3]) | Activity (RAW264.7 [4]) | inhibition (RAW264.7 [5]) | inhibition [6] | inhibition at 25 µM (RAW264.7 [7]) [%] |
| --- | --- | --- | --- | --- | --- | --- | --- |
| C[C@@H]1O[C@@H](Oc2c(-c3ccc(O)c(O)c3)oc3cc(O)cc(O)c3c2=O)[C@H](O)[C@H](O)[C@H]1O | Active | – | – | – | – | – | – |
| COc1c(C)c(O)c(Cc2c(O)cc(O)c3c2O[C@H](c2ccc(O)c(O)c2)[C@@H](O)C3)c(O)c1C(C)=O [PILOSANOL N] | – | Dose-dependent effect | Non-toxic | Dose-dependent effect | Active | Dose-dependent effect | 60 |
